Reference: patent US20150344457A1, “METHODS OF INHIBITING PRMT5” (EPIZYME, INC., priority 2012, published 2015)
Read-outs that look alike come from different tables or passages of the source.

Tests used:
PRMT5/MEP50 = molecular target: T1, PRMT5/MEP50 (Homo sapiens, UniProt O14744); assay: PRMT5 Biochemical Assay (PRMT5/MEP50 enzyme assay on peptide substrate, 3H-SAM Flashplate)
T1 construct: Expressed full-length human Flag-PRMT5/6His-MeP50 protein complex was purified; made in house; host or cells: Spodoptera frugiperda (SF9) insect cells, baculovirus (pDEST8)

Z-138 cells = assay: Z-138 Proliferation Assay (Cell Titer Glo, 5 days); format: cell-based; conditions: Homo sapiens, 120 h, Table A-2, 5 days, top concentration 20 μM
How it was run: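 Exponentially growing Z-138 cells (10,000 cells/ml) in RPMI 1640 with 10% FBS are exposed to nine-point 3-fold dilutions (final top concentration 20 μM, 0.2% DMSO) for 5 days at 37° C. Viability is measured as ATP by CellTiter-Glo luminescence. The 50% inhibitory concentration comes from a 4-parameter fit.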

[1] = Table A-2, PRMT5/MEP50 4 nM, 3H-SAM 75 nM, peptide 40 nM, read-out: Biochemical IC50

T1 sequence (O14744 with tags, fused parts or gaps): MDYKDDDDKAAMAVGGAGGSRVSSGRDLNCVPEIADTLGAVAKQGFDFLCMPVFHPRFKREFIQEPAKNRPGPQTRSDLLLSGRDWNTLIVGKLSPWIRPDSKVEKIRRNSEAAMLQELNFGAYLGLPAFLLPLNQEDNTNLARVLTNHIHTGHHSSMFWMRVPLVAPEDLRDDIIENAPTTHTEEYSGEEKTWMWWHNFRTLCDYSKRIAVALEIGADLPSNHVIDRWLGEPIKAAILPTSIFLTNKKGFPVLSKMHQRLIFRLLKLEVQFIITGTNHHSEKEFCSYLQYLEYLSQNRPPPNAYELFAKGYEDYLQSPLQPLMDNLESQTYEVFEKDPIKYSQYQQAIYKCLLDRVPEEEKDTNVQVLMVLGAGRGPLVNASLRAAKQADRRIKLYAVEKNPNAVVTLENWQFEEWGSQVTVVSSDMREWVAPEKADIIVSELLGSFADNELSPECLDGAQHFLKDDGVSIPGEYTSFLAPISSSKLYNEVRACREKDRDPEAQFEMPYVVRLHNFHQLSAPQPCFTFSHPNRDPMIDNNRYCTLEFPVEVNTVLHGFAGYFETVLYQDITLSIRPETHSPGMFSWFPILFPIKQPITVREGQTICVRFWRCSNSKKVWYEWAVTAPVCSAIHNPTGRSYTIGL
T1 sequence (Q9BQA1 with tags, fused parts or gaps partner limits assumed): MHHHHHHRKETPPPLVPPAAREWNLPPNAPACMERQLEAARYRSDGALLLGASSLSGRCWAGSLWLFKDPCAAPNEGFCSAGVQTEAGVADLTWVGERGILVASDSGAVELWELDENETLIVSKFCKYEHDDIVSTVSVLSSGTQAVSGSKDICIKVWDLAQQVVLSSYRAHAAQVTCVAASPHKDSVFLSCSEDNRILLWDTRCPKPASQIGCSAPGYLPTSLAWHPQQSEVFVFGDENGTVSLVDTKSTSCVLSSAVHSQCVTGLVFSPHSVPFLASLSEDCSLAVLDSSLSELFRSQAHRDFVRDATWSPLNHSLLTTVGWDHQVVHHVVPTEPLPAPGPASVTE

SMILES | IC50 (PRMT5/MEP50; [1]) [µM] | EC50 (Z-138 cells) [µM] | IC50 (PRMT5/MEP50; Biochemical IC50) [µM]
CS(=O)(=O)Nc1ccccc1OCC(=O)NCC(O)CN1CCc2ccccc2C1 (centres unmarked) [Compound A53] | < 0.1 | 1 to 10 | 
O=C(COc1ccccc1-c1cc[nH]n1)NC[C@@H](O)CN1CCc2ccccc2C1 [Compound A67] | < 0.1 | 1 to 10 | 
O=C(COc1cccc2c1CCCC2)NCC(O)CN1CCc2ccccc2C1 (centres unmarked) [Compound A64] | < 0.1 | 1 to 10 | 
O=C(COc1ccccc1C1CCCCC1)NCC(O)CN1CCc2ccccc2C1 (centres unmarked) [Compound A40] | < 0.1 | 1 to 10 | 
O=C(COc1ccccc1S(=O)(=O)N1CCNCC1)NCC(O)CN1CCc2ccccc2C1 (centres unmarked) [Compound A107] | < 0.1 | 1 to 10 | 
O=C(COc1ccccc1S(=O)(=O)N1CCCC1)NCC(O)CN1CCc2ccccc2C1 (centres unmarked) [Compound A110] | < 0.1 | 0.101 to 1 | 
CN(C)C(=O)c1ccccc1OCC(=O)NCC(O)CN1CCc2ccccc2C1 (centres unmarked) [Compound A113] | 0.101 to 1 | 10 to 50 | 
CN(C)S(=O)(=O)c1ccccc1OCC(=O)NCC(O)CN1CCc2ccccc2C1 (centres unmarked) [Compound A109] | < 0.1 | 0.101 to 1 | 
Cc1ccccc1OCC(=O)NCC(O)CN1CCc2ccccc2C1 (centres unmarked) [Compound A15] | 0.101 to 1 | 1 to 10 | 
N#Cc1cccc(OCC(=O)NCC(O)CN2CCc3ccccc3C2)c1 (centres unmarked) [Compound A8] | 0.101 to 1 | 10 to 50 | 
O=C(COc1cccc2ccc(N3CCOCC3)nc12)NCC(O)CN1CCc2ccccc2C1 (centres unmarked) [Compound A48] | < 0.1 | 10 to 50 | 
NC(=O)c1cccc(OCC(=O)NCC(O)CN2CCc3ccccc3C2)c1 (centres unmarked) [Compound A34] | 0.101 to 1 | 10 to 50 | 
CS(=O)(=O)c1ccccc1OCC(=O)NCC(O)CN1CCc2ccccc2C1 (centres unmarked) [Compound A37] | < 0.1 | 1 to 10 | 
CN1CCC(n2cnc3ccc(OCC(=O)NCC(O)CN4CCc5ccccc5C4)cc32)CC1 (centres unmarked) [Compound A71] | < 0.1 | > 20 | 
Cn1cc2c(OCC(=O)NCC(O)CN3CCc4ccccc4C3)cccc2n1 (centres unmarked) [Compound A118] | 0.101 to 1 | > 20 | 
O=C(COc1cccc2cccnc12)NCC(O)CN1CCc2ccccc2C1 (centres unmarked) [Compound A6] |  | 0.101 to 1 | < 0.1
N#Cc1ccc(OCC(=O)NCC(O)CN2CCc3ccccc3C2)cc1 (centres unmarked) [Compound A11] | 0.101 to 1 | 10 to 50 | 
O=C(COc1cccc2c1OCC(=O)N2)NCC(O)CN1CCc2ccccc2C1 (centres unmarked) [Compound A124] | 1 to 10 | > 20 | 
CS(=O)(=O)c1cccc(OCC(=O)NCC(O)CN2CCc3ccccc3C2)c1 (centres unmarked) [Compound A47] | < 0.1 | 1 to 10 | 
